From patent US20090005250A1, “Substituted 2,4-diamino-1,3,5-triazines, processes for their use as herbicides and crop growth regulators” (Bayer CropScience AG, priority 2006, published 2009)

Experiments:
[1] = tested on: harmful plants such as Sinapis alba, Echinochloa crus-galli, Lolium multiflorum, Stellaria media, Cyperus iria, Amaranthus retroflexus, Setaria viridis, Avena …; assay: Post-emergence herbicidal action (greenhouse pot test); assay type: in vivo, mono- and dicotyledonous weeds; settings: application rate of 500 g and less of active substance per hectare; treated at three-leaf stage; scored visually after approx. 3 to 4 weeks
Method: Seeds or rhizome pieces of mono- and dicotyledonous weeds were placed in sandy loam in plastic pots, covered with soil and grown in a greenhouse under good growth conditions. Three weeks after the sowing, the test plants were treated at the three-leaf stage. The inventive compounds formulated as spray powders or as emulsion concentrates were sprayed onto the green plant parts in various dosages with an application rate of from 600 to 800 l/ha of water (converted). After the test plants had been left to stand in the greenhouse under optimal growth conditions for approx. 3 to 4 weeks, the action of the preparations was scored visually in comparison to untreated controls. The inventive compositions also had good post-emergence herbicidal activity against a wide spectrum of economically important gramineous and broadleaf weeds. For example, examples no.

[2] = tested on: harmful plants such as Stellaria media, Lolium multiflorum, Amaranthus retroflexus, Sinapis alba, Avena sativa and Setaria viridis; assay: Pre-emergence herbicidal action (greenhouse pot test); assay type: in vivo, mono- and dicotyledonous weed plants; settings: application rate of 500 g or less of active substance per hectare; scored visually after 3 to 4 weeks in comparison to untreated controls
From the text: Seeds or rhizome pieces of mono- and dicotyledonous weed plants were placed in sandy loam in plastic pots and covered with soil. The inventive compounds, which have been formulated in the form of wettable powders or emulsion concentrates, were then applied to the surface of the covering soil as an aqueous suspension or emulsion in different dosages with an application rate of from 600 to 800 l/ha of water (converted). After the treatment, the pots were placed in a greenhouse and kept under good growth conditions for the weeds. The plant or emergence damage is scored visually after the emergence of the test plants after an experiment time of from 3 to 4 weeks in comparison to untreated controls. […] For example, the examples no.

SMILES	herbicidal action, post-emergence method [1]	herbicidal action, pre-emergence method [2]
Nc1ncnc(NC(C2CC2)C2CC2)n1 [Example 1-19]	very good herbicidal action	very good herbicidal action
Cc1nc(N)nc(NC(C2CC2)C2CC2)n1 [Example 1-98]		very good herbicidal action
Nc1nc(NC(C2CC2)C2CC2)nc(C2CC2)n1 [Example 1-256]	very good herbicidal action	
CC(F)c1nc(N)nc(NC(C(C)C)C2CC2)n1 (stereo not shown) [Example 1-317]	very good herbicidal action	very good herbicidal action
CC(F)c1nc(N)nc(NC(C2CC2)C2CC2)n1 (stereo not shown) [Example 1-335]	very good herbicidal action	very good herbicidal action
CCC(F)c1nc(N)nc(NC(C2CC2)C2CC2)n1 (stereo not shown) [Example 1-414]	very good herbicidal action	
CCC(F)c1nc(N)nc(NC(C2CCC2)C2CCC2)n1 (stereo not shown) [Example 1-420]	very good herbicidal action	very good herbicidal action
CC(C)C(Nc1nc(N)nc(C(C)(C)F)n1)C1CC1 (stereo not shown) [Example 1-475]	very good herbicidal action	very good herbicidal action
CC(C)(F)c1nc(N)nc(NC(C2CC2)C2CC2)n1 [Example 1-493]	very good herbicidal action	very good herbicidal action
CC(C)(F)c1nc(N)nc(NC(C2CCC2)C2CCC2)n1 [Example 1-499]		very good herbicidal action
Nc1nc(NC(C2CC2)C2CC2)nc(C2(F)CC2)n1 [Example 1-572]	very good herbicidal action	very good herbicidal action
Nc1nc(NC(C2CC2)C2CC2)nc(C(F)F)n1 [Example 1-651]	very good herbicidal action	very good herbicidal action
CC(=O)Nc1nc(NC(C2CC2)C2CC2)nc(C(C)(C)F)n1 [Example 2-199]	very good herbicidal action	very good herbicidal action
CN(C)C=Nc1nc(NC(C2CC2)C2CC2)nc(C(C)(C)F)n1 [Example 5-201]	very good herbicidal action	very good herbicidal action
CC(C)(F)c1nc(N=CN2CCOCC2)nc(NC(C2CC2)C2CC2)n1 [Example 6-199]	very good herbicidal action	very good herbicidal action
CC(C)(F)c1nc(N)nc(NC2CCC3CC32)n1 (stereo not shown) [Example 7-79]	very good herbicidal action	very good herbicidal action
